For experiment [1], the system named is vascular calcification in Mgp−/− mice. Description: Early vascular calcification in Mgp−/− mice. The format is in vivo, mouse. The note with it: Mgp−/− mice at 2 weeks of age, 5 ug/g daily for 2 weeks. The protocol: To examine whether SB216763 could be used for treatment of vascular calcification, the Mgp^−/− mouse was chosen, a well-known model of calcification. Mgp^−/− mice develop arterial calcification as early as postnatal day 14. At 4 weeks of age, the entire arterial vasculature is severely calcified. Two independent experiments were performed to test if SB216763 decreased calcification in Mgp^−/− mice. First, young Mgp^−/− mice at 2 weeks of age with SB216763 were treated (5 ug/g daily) for 2 weeks to determine if SB216763 prevented osteogenesis in the Mgp^−/− aortas (FIG. 5, Part A).
Mgp^+/− (B6.129S7-Mgptm1Kry/KbosJ), Col1α1^CreERT2 (B6.Cg-Tg(Col1α1-cre/ERT2)1Crm/J), GSK3β^flox/flox (B6.129(Cg)-Gsk3btm2Jrw/J) and Osx-Gfptg (B6.Cg-Tg(Sp7-tTA,tetO-EGFP/cre)1Amc/J) mice on C57BL/6J background were purchased from the Jackson Laboratory. Genotypes were confirmed by PCR, and experiments were performed with generation F4-F6. Littermates were used as wild type controls. All mice were fed a standard chow diet. The studies were reviewed and approved by the Institutional Review Board and conducted in accordance with the animal care guidelines set by the University of California, Los Angeles (UCLA). The investigation conformed to the National Research Council, Guide for the Care and Use of Laboratory Animals, Eighth Edition (Washington, D.C.: The National Academies Press, 2011).

The test system of the next experiment is ectopic bone formation. Description: Ectopic bone formation in vivo after transplantation of treated cells. The arrangement: species or system mouse. On the procedure: To assess the functional capacity of SB216763-treated osteoblasts, they were treated with osteogenic induction media in vitro. […] A transplantation experiment was then performed to examine the capacity for bone formation using a well-established bone formation assay in vivo. This assay was adapted and eGFP positive cells were used, which were isolated from SB216763-treated Flk1-eGFP osteoblasts (FIG. 2, Part A).
The cells were then subjected to osteogenic induction media. […] Cells was transplanted into nude mice to test ectopic bone formation.
MicroCT imaging was performed at the Crump Imaging Center at UCLA. All the samples were scanned on a high-resolution, volumetric microCT scanner (CT125). The image data were acquired with the following parameters: 10 μm isotropic voxel resolution; 200 ms exposure time; 2,000 views and 5 frames per view. The microCT-generated DICOM files were used to analyze the samples and to create volume renderings of the regions of interest. The raw data files were viewed using the MicroView 3-D volume viewer and analysis tool (GE Healthcare) and AltaViewer™ Software. Additionally, images of the samples were generated using SCIRun (Scientific Computing and Imaging Institute).
All the surgeries were performed on a heated pad with a connection to a continuous flow of isoflurane. Ectopic bone formation was performed as previously described: 5×10^5 cells were mixed with 40 mg hydroxyapatite/tricalcium phosphate power (SALVIN™, ORASTRUCT-0.5 CC) and incubated in a 1 ml syringe at 37° C. in 5% CO2 overnight. After disinfection with 70% ethanol, a skin incision was made on the back of mouse. A subcutaneous pouch was formed by blunt dissection. The mixture of cells and hydroxyapatite/tricalcium phosphate was transplanted into the pouch and the incision was closed. The implants were examined by microCT imaging and histology 12 weeks after transplantation.

The next experiment has as its system GFP+CD31+ aortic cells. Put plainly: Bone formation assay in vivo with GFP+CD31+ aortic cells of treated mice. The arrangement: species or system mouse. On the procedure:
Then, mice were treated with or without SB216763 for 2 weeks. […] Then, the alteration of GFP and CD31 double positive cells (GFP+CD31+) were characterized after SB216763 treatment. […] Same numbers of cells of each group were used to perform a transplantation experiment to examine the capacity of bone formation by using bone formation assay in vivo.

Experiment [2] concerns SMAD1 or β-catenin DNA-binding. Put plainly: ChIP-seq of SMAD1 and β-catenin DNA-binding in treated osteoblasts. Type of experiment: cell-based, mouse. The protocol:
A chromatin immunoprecipitation was performed with massively parallel DNA sequencing (ChIP-seq) to examine potential alterations of SMAD1 or β-catenin DNA-binding in SB216763-treated osteoblasts.
For ChIP-seq, specific antibodies were used to enrich the genomic DNA as described before. ChIP DNA were sequenced by the Pathology Research Services at UCLA. Reads from each sample were mapped to the mouse genome using Bowtie2. Homer tool was used to detect significant enrichment of peaks with 5% false discovery rate and >4-fold over input. Motif occurrences in peaks were identified by the Homer motif discovery function. Peak annotation was performed to associate peaks with nearby genes and calculate tag densities. GO analysis and pathway enrichment of the identified genes were also performed. Specific antibodies for SMAD1 (Cell Signaling Technology, 9743) and β-catenin (R&D System, MAB2006) were used. The data were deposited in Gene Expression Omnibus (GEO) database with access number (GSE147374).

The test system of experiment [3] is eGFP positive cells from SB216763-treated Flk1-eGFP osteoblasts. Put plainly: Tube formation assay in vitro. Type of experiment: cell-based, mouse. The protocol:
Then, same cells in a model of hindlimb ischemia in nude mice to evaluate the capacity of eGFP positive cells in vascular repair were tested. After ligation of the proximal and distal femoral artery, eGFP positive cells were transplanted (FIG. 2, Part F). Human aortic endothelial cells (HAECs) and osteoblasts were used as controls.
Tube formation assays in vitro was then tested. […] Cells into hindlimb ischemia mouse model were transplanted.

Each structure is given as a SMILES string.

With `Cn1cc(C2=C(c3ccc(Cl)cc3Cl)C(=O)NC2=O)c2ccccc21` [SB216763], in experiment [1], the “CD31+ aortic cells co-expressing VE-cadherin and osterix, FACS” value was “decreased number of cells that co-expressed VE-cadherin and osterix”; the “CD31+ aortic cells expressing only VE-cadherin, FACS” value is “increased number of cells that only expressed VE-cadherin”; the “aortic mineralization, von Kossa staining” value is recorded as “dramatic decrease in aortic mineralization”; the “immunoblotting of aortic tissues” value is “decreased Cbfa1 and osterix, increased von Willebrand factor (vWF) and VE-cadherin and altered SMAD1 and β-catenin”. Further, in experiment [1], the total aortic calcium entry is reported as “decrease in calcium deposition”. Moreover, the “osteocytes in implants, histology and immunostaining” value in the experiment with ectopic bone formation (SB216763-treated cells with SMAD1 overexpression or knockdown of β-catenin) was “presence of osteocytes”. For the same compound, the “osteocytes in implants, histology and immunostaining” value with ectopic bone formation (implants with eGFP positive cells from treated osteoblasts) is given as “lack of osteocytes”. Besides, the “ectopic bone by microCT” value in the experiment on ectopic bone formation (implants with eGFP positive cells from treated osteoblasts vs osteoblast controls) is “smaller size of ectopic bone, less trabecular formation and less bone volume”. For the same compound, the “osteocytes in implants, histology” value with GFP+CD31+ aortic cells (implants with GFP+CD31+ aortic cells of treated group) is “lack of osteocytes”. Further, the “ectopic bone by Micro-CT” value in the experiment with GFP+CD31+ aortic cells (implants with GFP+CD31+ aortic cells of treated group vs controls) was “smaller size of ectopic bone, less trabecular formation and less bone volume”. In experiment [2] (ChIP-seq), the “genes with decreased DNA-binding of SMAD1 in the regulatory regions” value turned out to be 8214 genes and the “genes with increased β-catenin DNA-binding in the regulatory regions” value turned out to be 1543 genes. For the same compound, in experiment [2] (overlap with 519 induced genes), the “genes with an increase in expression and β-catenin DNA-binding” value turned out to be 84 genes. In experiment [2] (overlap with 827 suppressed genes), the “genes with a decrease in both gene expression and SMAD1 DNA-binding” value amounted to 649 genes. Besides, in experiment [3] (SB216763-treated cells with β-catenin depletion), the tube formation result is on record as “decrease of tube formation”. Moreover, in experiment [3] (eGFP positive cells from treated osteoblasts), the tube formation entry was “robust tube formation”.

The values above are taken from patent US20230285357A1, “COMPOSITIONS AND METHODS FOR […] CELLS” (The Regents of the University of California, priority 2020, published 2023).
